Source: paper PMC8110578, “Phenylethynylbenzyl-modified biguanides inhibit pancreatic cancer tumor growth” (Scientific Reports, 2021)

Experiment: Lucigenin assay, chloride transport in EYPC liposomes
Settings: lucigenin-containing liposomes
Source text: Phospholipid vesicles can be used as models for studying membrane insertion and permeabilization. Using an anion-selective probe in synthetic phospholipid liposomes, anion transport can be monitored by fluorescence. […] This basification was further enhanced with the addition of a base pulse to the external solution at 300 s, indicating either a transport of protons to the extravesicular solution, or the transport of hydroxyls to the intravesicular solution. This was also reported for alkylbiguanidium salts and was described as an electrogenic process, i.e. the transmembrane transport of an ion without the balance of the charge through the movement of another ion, which usually results in a charge transfer. […] […]. The transport of H^+/OH^− ions across the membrane is an electrogenic mechanism that usually causes the depolarization of the electrochemical gradient across phospholipid membranes. When EYPC-LUVs liposomes containing intravesicular K^+ ions are bathing in an extravesicular solution containing Na^+ ions a small membrane potential is generated at their membranes, and the fluorescence of Safranin-O can be used as a membrane potential probe. […].
Experimental. […] The fluorescence was monitored for 350 s.

N=C(N)NC(=N)NCc1ccc(C#Cc2ccccc2)cc1 [1b, 4-(phenylethynyl)benzylbiguanide]
Chloride transport across EYPC-LUV membrane: did not transport chloride
